Experimental data reported in ChEMBL document CHEMBL6074695, “Structural Aspects of Mycobacterium tuberculosis DNA Gyrase Targeted by Novel Bacterial Topoisomerase Inhibitors” (ACS Med Chem Lett, 2024).
In brackets after ≈: the same amount, converted by molar mass.

Test system: Mycobacterium tuberculosis
Assay type: functional, organism-based
Settings: H37Rv, 120 h

SMILES	IC50	MIC (time 5 day)
COc1ccc2nccc(CCN3CCC(NCc4cc(F)c(Cl)c(F)c4)CC3)c2n1	7 nM	
O=c1ccc2ncc(=O)n3c2n1C[C@H]3CN1CCC(NCc2cc3c(cn2)OCCC3)CC1 [GEPOTIDACIN]		0.86 µM (≈ 0.386 µg/mL)
